Paper PMC5645128, “Hydrophobic residues are critical for the helix-forming, hemolytic and bactericidal activities of amphipathic antimicrobial peptide TP4” (PLoS ONE, 2017)
≈ marks a conversion by molar mass, not a printed value. Ends that are not written are not given here.

How the values were obtained:
[1] = system: MRSA; assay type: cell-based, methicillin-resistant Staphylococcus aureus
Protocol: (§1) All the tested microbes were cultured at 37°C except C. albicans (30°C) in respective medium. 90 μl of cell suspension (2–4 x10^6 cfu/ml) mixed with 10 μl of diluted TP4 were loaded in 96-well microplate and incubated overnight with gentle agitation at 100 rpm. The absorbance of TP4-treated bacteria in 96-well plate was measured by SpectraMax 190 microplate reader at 600 nm. The remaining cfu in the TP4-treated sample was determined by plating on agar plates. Minimum inhibitory concentration (MIC) was defined as the lowest AMP concentration in order to keep the solution with the same absorbance as that of culture medium. Minimum bactericidal concentration (MBC) was defined as the lowest AMP concentration able to kill 99.99% of microorganisms. At least three independent experiments were performed to determine the average value with standard deviation.

[2] = system: S. aureus; assay type: cell-based, Staphylococcus aureus
Protocol: as §1

[3] = system: C. albicans; assay type: cell-based, Candida albicans
Protocol: as §1

[4] = system: P. aeruginosa; assay type: cell-based, Pseudomonas aeruginosa
Protocol: as §1

[5] = assay type: physicochemical
Protocol: Fig 4 Hydrophobicity and solubility of TP4 in the presence of sarkosyl and LPS. (A) ANS emission spectrum of TP4 in solution containing sarkosyl. TP4 (4 μg) was dissolved in 200 μl of 10 mM sodium phosphate, pH7.4, 0.1 M NaCl, containing various concentrations of sarkosyl (0.075%, w/v, designated as 1x). (B) ANS emission spectrum of TP4 in solution containing LPS. TP4 (4 μg) was dissolved in 200 μl of 10 mM sodium phosphate, pH7.4, containing various amounts of LPS as indicated. ANS was added stepwise to the final concentrations as indicated (lines 1 to 6 at 0, 10, 20, 30, 40 and 50 μM, respectively). Arrows indicate the emission maximum at 470 nm or 520 nm for bound- and free-form ANS, respectively. (C, D) Solubility of TP4 in solution containing either sarkosyl or LPS. TP4 (4 μg) dissolved in 200 μl of respective solution containing sarkosyl or LPS at concentration as indicated was spun at 14,000 x g for 15 min and analyzed by SDS-PAGE/Coomassie blue staining.
Fig 9 OprI-binding ability of TP4-derived peptides. (A) Competition for OprI binding by TP4-derived peptides. […] The gel pellet was analyzed by non-reducing SDS-PAGE/Coomassie blue staining. rOprI, recombinant OprI; S.t, Streptavidin. […] TP4-derived peptides (6 μg each) dissolved in 1x sarkosyl buffer (300 μl) were incubated at 37°C for 10 min, then spun at 14,000 x g for 15 min and analyzed by SDS-PAGE/Coomassie blue staining. […]

[6] = system: mouse red blood cells; assay type: cell-based
Protocol: For blood collection, cardiac puncture was performed on anesthetized mice (by 3% isoflurane) by a 1 ml heparin-rinsed syringe with a 22 gauge needle. After blood collection, the animals were euthanized by cervical dislocation. Fresh mouse blood was rinsed three times with PBS, centrifuged for 5 minutes at 1500 rpm and re-suspended in PBS (1:30 dilution). The diluted erythrocyte (150 μl) was incubated with TP4-derived peptides at 37°C for 3 hr and centrifuged at 120x g for 5 minutes. The supernatants (100 μl) were transferred to a 96-well plate and the absorbance of released hemoglobin was measured by SpectraMax 190 microplate reader at 414 nm. Percent hemolysis was calculated by the following formula: % hemolysis = [(A414in the peptide solution−A414in PBS)/(A414in 0.1% Triton-X 100 –A414in PBS)]. Zero and 100% hemolysis were determined in PBS and 0.1% Triton-X 100, respectively.
Fig 8 Hemolytic activity of TP4-derived peptides. Diluted mouse red blood cells (150 μl) was incubated with TP4-derived peptides at 37°C for 3 hr and spun at 120 x g for 5 minutes. The supernatants (100 μl) were transferred to a 96-well plate for measurement of released hemoglobulin at 414 nm by the SpectraMax 190 microplate reader.

Row | Molecule | MBC [1] [µg/mL] | MIC [1] [µg/mL] | MBC [2] [µg/mL] | MIC [2] [µg/mL] | MBC [3] [µg/mL] | MIC [3] [µg/mL] | MBC [4] [µg/mL] | MIC [4] [µg/mL] | solubility of TP4 in 1x Sar [5] | hemolytic activity compared with wild type TP4 [6]
1 | FIHHIIGGLFSAGKAEHRLIRRRRR [I16E] | >512 | >512 | >512 | >512 | 128 | 128 | >512 | >512 | – | –
2 | FIHHIIGGLFSAGKAIHRLIRRR [dC2] | 32 | 32 | 32 | 16 | 128 | 128 | >512 | 512 | – | –
3 | FIHHIIGGAASAGKAIHRLIRRRRR [L9A/F10A] | >512 | >512 | >512 | >512 | 128 | 128 | >512 | >512 | – | –
4 | FIHHIIGGLFSAGKAIHRHHRRRRR [L19H/I20H] | >512 | >512 | 512 | 128 | 128 | 128 | >512 | 256 | – | –
5 | FIHHIIGGLFSAGKAIHRLIRRRRR [TP4] [listing 1 of 2 here] | – | – | – | – | – | – | – | – | less than 80 μM | –
6 | HHIIGGLFSAGKAIHRLIRRRRR [dN2] | >512 | >512 | 512 | 512 | 128 | 128 | >512 | 512 | – | –
7 | FIHHIIGGLFSAGKAIHSLIHRRRR [R18S/R21H] | 32 | 32 | 64 | 32 | 512 | 256 | 512 | 256 | – | –
8 | CC[C@H](C)[C@H](NC(=O)[C@H](CO)NC(=O)[C@H](Cc1ccccc1)NC(=O)[C@H](CC(C)C)NC(=O)CNC(=O)CNC(=O)[C@@H](NC(=O)[C@@H](NC(=O)[C@H](Cc1c[nH]cn1)NC(=O)[C@H](Cc1c[nH]cn1)NC(=O)[C@@H](NC(=O)[C@@H](N)Cc1ccccc1)[C@@H](C)CC)[C@@H](C)CC)[C@@H](C)CC)C(=O)NCC(=O)N[C@@H](CCCCN)C(=O)N[C@H](C(=O)N[C@H](C(=O)N[C@@H](Cc1c[nH]cn1)C(=O)N[C@@H](CCCNC(=N)N)C(=O)N[C@@H](CC(C)C)C(=O)N[C@H](C(=O)N[C@@H](CCCNC(=N)N)C(=O)N[C@@H](CCCNC(=N)N)C(=O)N[C@@H](CCCNC(=N)N)C(=O)N[C@@H](CCCNC(=N)N)C(=O)N[C@@H](CCCNC(=N)N)C(=O)O)[C@@H](C)CC)[C@@H](C)CC)[C@@H](C)CC [A12I/A15I] | 256 (≈ 83.5 µM) | 64 (≈ 20.9 µM) | 64 (≈ 20.9 µM) | 16 (≈ 5.22 µM) | 128 (≈ 41.8 µM) | 128 (≈ 41.8 µM) | >512 | 512 (≈ 167 µM) | – | four times higher activity than wild type TP4
9 | FIHHIIGGLFSAGKARHRLIRRRRR [I16R] | >512 | >512 | >512 | >512 | 256 | 128 | >512 | >512 | – | –
10 | IIGGLFSAGKAIHRLIRRRRR [dN4] | 256 | 64 | 128 | 128 | 128 | 64 | >512 | 256 | – | –
11 | FIAAIIGGLFSAGKAIHRLIRRRRR [H3A/H4A] | 256 | 128 | 32 | 32 | 512 | 512 | >512 | >512 | – | –
12 | FIHHIIGGLFSVGKHIHSLIHGH [TP3, reference compound] | >512 | 256 | 256 | 256 | 128 | 128 | >512 | >512 | – | –
13 | FIHHIIGGLFSAGKAAHRLIRRRRR [I16A] | 512 | 64 | 128 | 64 | 128 | 128 | >512 | 256 | – | –
14 | AAHHIIGGLFSAGKAIHRLIRRRRR [F1A/I2A] | >512 | >512 | 256 | 128 | 128 | 64 | 256 | 256 | – | –
15 | FIHHAAGGLFSAGKAIHRLIRRRRR [I5A/I6A] | >512 | >512 | >512 | >512 | 128 | 128 | 512 | 512 | – | –
16 | FIHHIIGGLFSVGKHIHRLIRRRRR [A12V/A15H] | 64 | 32 | 16 | 16 | 128 | 128 | 128 | 128 | – | –
17 | FIHHIIGGLFSAGKAIHRLIR [dC4] | 256 | 256 | 128 | 64 | 256 | 128 | >512 | >512 | – | –
18 | FIHHIIGGLFSVGKHIHSLIHRRRR [VHSH] | 32 | 16 | 16 | 16 | 128 | 128 | >512 | >512 | – | –
19 | FIHHIIGGLFSAGKAIHRLIRRRRR [TP4] [listing 2 of 2 here] | 32 | 16 | 16 | 8 | 128 | 128 | 128 | 64 | – | –
